ChEMBL document CHEMBL1201862, “PubChem BioAssay data set” (2004)
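All cell lines were grown in 96-well plates and treated with compound for 48 hours. The concentration for 50% growth inhibition is given as GI50.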 Activity calls are given as the source filed them. No stated cut-off is given here; in the data, active = GI50 up to about 1.1 µM and inactive = higher.

What was measured:
Assay in all cases: NCI anticancer screen, dose series, 48 h
[1] = test system: Hs-578T
[2] = test system: BT-549
[3] = test system: UACC-62
[4] = test system: M14
[5] = test system: SK-OV-3
[6] = test system: UACC-257
[7] = test system: ACHN
[8] = test system: SNB-75
[9] = test system: NCI/ADR-RES
[10] = test system: DU-145
[11] = test system: OVCAR-5
[12] = test system: 786-0
[13] = test system: SK-MEL-2
[14] = test system: SF-295
[15] = test system: TK-10
[16] = test system: SW-620
[17] = test system: MDA-MB-435
[18] = test system: HCT-15
[19] = test system: MCF7
[20] = test system: NCI-H460

SMILES | GI50 [1] | GI50 [2] | GI50 [3] | GI50 [4] | GI50 [5] | GI50 [6] | GI50 [7] | GI50 [8] | GI50 [9] | GI50 [10] | GI50 [11] | GI50 [12] | GI50 [13] | GI50 [14] | GI50 [15] | GI50 [16] | GI50 [17] | GI50 [18] [µM] | GI50 [19] | GI50 [20]
O=C1/C(=C/c2ccccc2)CN(C(=O)CCN2CCOCC2)C/C1=C\c1ccccc1 | 2.6 µM (inactive) | 2.14 µM (inactive) | 1.88 µM (inactive) | 2.33 µM (inactive) | 10.7 µM (inactive) | 2.13 µM (inactive) | 3.49 µM (inactive) | 7.18 µM (inactive) | 3.16 µM (inactive) | 16 µM (inactive) | 7.36 µM (inactive) | 1.96 µM (inactive) | 2.55 µM (inactive) | 2.42 µM (inactive) | 11.9 µM (inactive) | 0.459 µM (active) | 1.9 µM (inactive) | 2.14 | 1.95 µM (inactive) | 2.36 µM (inactive)
N=C(N)N/N=C/c1c(-c2ccc([N+](=O)[O-])cc2)nc2sccn12 | 1.89 µM (inactive) | 1.82 µM (inactive) | 1.87 µM (inactive) | 1.91 µM (inactive) | 1.64 µM (inactive) | 1.93 µM (inactive) | 2.64 µM (inactive) | 1.8 µM (inactive) | > 100 µM (inactive) | 1.82 µM (inactive) | 1.7 µM (inactive) | 1.47 µM (inactive) | 1.76 µM (inactive) | 1.39 µM (inactive) | 1.82 µM (inactive) | 0.706 µM (active) | 1.5 µM (inactive) | 10.2 | 1.42 µM (inactive) | 2 µM (inactive)
CCCCN1CCC(O)(c2cc(C(=O)O)[nH]c2-c2cc(C)no2)C1=O (stereo not given) | > 100 µM (inactive) | > 100 µM (inactive) | > 100 µM (inactive) | > 100 µM (inactive) | > 100 µM (inactive) | > 100 µM (inactive) | > 100 µM (inactive) | 49.9 µM (inactive) | > 100 µM (inactive) | > 100 µM (inactive) | > 100 µM (inactive) | > 100 µM (inactive) | > 100 µM (inactive) | > 100 µM (inactive) | > 100 µM (inactive) | > 100 µM (inactive) | > 100 µM (inactive) | > 100 | > 100 µM (inactive) | > 100 µM (inactive)
O=C1c2ccccc2-c2nc(-c3cccnc3)cc3c2c1nc1ccccc13 | > 100 µM (inactive) | > 100 µM (inactive) | 32.7 µM (inactive) | 14.3 µM (inactive) | > 100 µM (inactive) | > 100 µM (inactive) | > 100 µM (inactive) | > 100 µM (inactive) | > 100 µM (inactive) | > 100 µM (inactive) | > 100 µM (inactive) | > 100 µM (inactive) | > 100 µM (inactive) | 58.3 µM (inactive) | > 100 µM (inactive) | > 100 µM (inactive) | 18.2 µM (inactive) | > 100 | > 100 µM (inactive) | 22.8 µM (inactive)
CCOC(=O)[C@H](C)OC(=O)[C@@](C)(NC(=O)c1ccccc1C(=O)OC)[C@@H]1NC=C(C(=O)OC)CS1 | > 100 µM (inactive) | > 100 µM (inactive) | 76 µM (inactive) | > 100 µM (inactive) | > 100 µM (inactive) | > 100 µM (inactive) | > 100 µM (inactive) | 25.4 µM (inactive) | > 100 µM (inactive) | > 100 µM (inactive) | > 100 µM (inactive) | > 100 µM (inactive) | > 100 µM (inactive) | > 100 µM (inactive) | > 100 µM (inactive) | > 100 µM (inactive) | 27.6 µM (inactive) | > 100 | 79.1 µM (inactive) | 80.4 µM (inactive)
CC1OC(OCC2OC(Oc3ccc(C4CC(=O)c5c(O)cc(O)cc5O4)cc3O)C(O)C(O)C2O)C(O)C(O)C1O (stereo not given) | > 100 µM (inactive) | > 100 µM (inactive) | > 100 µM (inactive) | > 100 µM (inactive) | > 100 µM (inactive) | > 100 µM (inactive) | > 100 µM (inactive) | > 100 µM (inactive) | > 100 µM (inactive) | > 100 µM (inactive) | > 100 µM (inactive) | > 100 µM (inactive) | > 100 µM (inactive) | > 100 µM (inactive) | > 100 µM (inactive) | > 100 µM (inactive) | > 100 µM (inactive) | > 100 | > 100 µM (inactive) | > 100 µM (inactive)
COc1cc(C2c3cc4c(cc3OC(O)C2C)OCO4)cc(OC)c1O (stereo not given) | 8.02 µM (inactive) | 7.26 µM (inactive) | 3.49 µM (inactive) | 6.9 µM (inactive) | 6.59 µM (inactive) | 48.5 µM (inactive) | 12.4 µM (inactive) | 3.29 µM (inactive) | 3.49 µM (inactive) | 23.5 µM (inactive) | 46.8 µM (inactive) | 8.89 µM (inactive) | 10.3 µM (inactive) | 3.92 µM (inactive) | 6.95 µM (inactive) | 4 µM (inactive) | 1.95 µM (inactive) | 5.43 | 4.4 µM (inactive) | 4.85 µM (inactive)
CCCCCCCCCCCNC=O | 52 µM (inactive) | 21.8 µM (inactive) | 51.2 µM (inactive) | 63 µM (inactive) | 75.5 µM (inactive) | 32.4 µM (inactive) | 40.5 µM (inactive) | 50.8 µM (inactive) | 30.6 µM (inactive) | 84.7 µM (inactive) | 80.9 µM (inactive) | > 100 µM (inactive) | 24.8 µM (inactive) | 36.9 µM (inactive) | 37.7 µM (inactive) | 48.3 µM (inactive) | 73.8 µM (inactive) | 27.4 | 37.9 µM (inactive) | 53.7 µM (inactive)
CN(C)c1ccc(C(=NN)c2ccc(N(C)C)cc2)cc1 | 2.33 µM (inactive) | 1.77 µM (inactive) | 0.506 µM (active) | 0.504 µM (active) | 1.84 µM (inactive) | 0.203 µM (active) | 8.3 µM (inactive) | 0.401 µM (active) | 0.179 µM (active) | 2.2 µM (inactive) | 4.95 µM (inactive) | 4.8 µM (inactive) | 0.121 µM (active) | 0.449 µM (active) | 0.557 µM (active) | 0.462 µM (active) | 0.0416 µM (active) | 0.229 | 0.573 µM (active) | 0.337 µM (active)
O=C(O)C(C1NCCS1)N1C(=O)c2ccccc2C1=O (stereo not given) | > 100 µM (inactive) | > 100 µM (inactive) | > 100 µM (inactive) | > 100 µM (inactive) | > 100 µM (inactive) | > 100 µM (inactive) | > 100 µM (inactive) | > 100 µM (inactive) | > 100 µM (inactive) | > 100 µM (inactive) | > 100 µM (inactive) | > 100 µM (inactive) | > 100 µM (inactive) | > 100 µM (inactive) | > 100 µM (inactive) | > 100 µM (inactive) | > 100 µM (inactive) | > 100 | > 100 µM (inactive) | > 100 µM (inactive)
Cc1ccc2c(c1)C(=O)/C(=C\c1ccccc1)CCS2(=O)=O | 15.8 µM (inactive) | 6.68 µM (inactive) | 11.9 µM (inactive) | 19.8 µM (inactive) | 15.9 µM (inactive) | 12.3 µM (inactive) | 11.4 µM (inactive) | 20.6 µM (inactive) | 7.23 µM (inactive) | 3.27 µM (inactive) | 19 µM (inactive) | 11.2 µM (inactive) | 18.6 µM (inactive) | 14.2 µM (inactive) | 13.8 µM (inactive) | 15.5 µM (inactive) | 10.8 µM (inactive) | 4.84 | 6.21 µM (inactive) | 9.12 µM (inactive)
CC(C)(C)OC(=O)c1ccc(NCC2=CC(=O)C=CC2=O)cc1 | 15.7 µM (inactive) | 11.6 µM (inactive) | 13.2 µM (inactive) | 6.38 µM (inactive) | 17.1 µM (inactive) | 12.3 µM (inactive) | 10.1 µM (inactive) | 8.28 µM (inactive) | 8.93 µM (inactive) | 16.1 µM (inactive) | 17.8 µM (inactive) | 9.35 µM (inactive) | 16.7 µM (inactive) | 23 µM (inactive) | 9.25 µM (inactive) | 9.91 µM (inactive) | 12.9 µM (inactive) | 7.18 | 0.706 µM (active) | 23.6 µM (inactive)
O=C(NN1CCCCC1)c1cc2cc(CCl)ccc2oc1=O | 16.3 µM (inactive) | 19.3 µM (inactive) | 27.7 µM (inactive) | 18.8 µM (inactive) | 21.9 µM (inactive) | 21.6 µM (inactive) | 44.5 µM (inactive) | 18.6 µM (inactive) | 23.1 µM (inactive) | 29.4 µM (inactive) | 17.2 µM (inactive) | 16.5 µM (inactive) | 11.9 µM (inactive) | 20.1 µM (inactive) | 17 µM (inactive) | 23.1 µM (inactive) | 18.5 µM (inactive) | 17.7 | 38.7 µM (inactive) | 14.9 µM (inactive)
O=[N+]([O-])c1cc2oc(COc3ccccc3)nc2cc1Cl | 38.6 µM (inactive) | 20.8 µM (inactive) | 17.1 µM (inactive) | 19.5 µM (inactive) | 24.9 µM (inactive) | 22.1 µM (inactive) | 48.3 µM (inactive) | 18.7 µM (inactive) | 21.4 µM (inactive) | 32.3 µM (inactive) | 28.4 µM (inactive) | 33.1 µM (inactive) | 22.1 µM (inactive) | 17.4 µM (inactive) | 35 µM (inactive) | 43.2 µM (inactive) | 23.6 µM (inactive) | 18.7 | 23.8 µM (inactive) | 21.3 µM (inactive)
